Measurements from patent US20050032844A1, “Methods for regulating nicotine metabolism” (Nicogen, Inc., priority 1996, published 2005).
“And” between values parts separate entries of the source, which are not always exact repeats. Equal values may be shown once. “Also recorded” adds a separate entry of the source. Where a name gives a salt, the structure may show the parent alone. Read-outs that look alike come from different tables or passages of the source.

Key:
CYP2A6 [1] = target: T1, CYP2A6 (Homo sapiens, UniProt P11509); assay: biochemical
T1 sequence (P11509 1-494): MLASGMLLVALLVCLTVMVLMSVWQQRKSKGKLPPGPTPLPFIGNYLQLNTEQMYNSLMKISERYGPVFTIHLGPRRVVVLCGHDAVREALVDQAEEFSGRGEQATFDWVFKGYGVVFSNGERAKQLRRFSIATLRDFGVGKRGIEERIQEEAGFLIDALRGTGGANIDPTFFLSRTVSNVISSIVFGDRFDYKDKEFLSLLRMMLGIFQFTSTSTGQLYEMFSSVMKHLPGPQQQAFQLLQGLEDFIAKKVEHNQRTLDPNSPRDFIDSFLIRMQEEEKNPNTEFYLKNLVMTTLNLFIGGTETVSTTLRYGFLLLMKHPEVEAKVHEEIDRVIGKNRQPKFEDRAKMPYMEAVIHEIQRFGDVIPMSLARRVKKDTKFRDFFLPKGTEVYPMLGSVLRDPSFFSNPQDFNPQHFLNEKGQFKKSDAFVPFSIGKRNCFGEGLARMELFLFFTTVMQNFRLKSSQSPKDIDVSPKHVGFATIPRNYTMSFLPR
Protocol: Coumarin, 7-methylcoumarin, 7-methoxycoumarin and 7-ethoxycoumarin, at 10 and 100 μM concentrations, were incubated with 50 μM nicotine in K27 human liver microsomes. Furthermore, nicotine at 10, 30 and 50 μM concentrations was incubated using K27 liver microsomes in the presence of 0, 1, 2 and 5 μM concentrations of coumarin.
Microsomes were removed from −70° C. freezer and thawed on ice. […] The reaction was stopped by adding 100 μl to 20% Na2CO3 (pH 11.4).

[2] = in vivo; cited from earlier work
[3] = tested on: nicotine to cotinine metabolism by human liver microsomes; assay: Chemical inhibition studies of nicotine to cotinine metabolism in 30 human liver microsomes and K27 microsomes; assay type: biochemical; details: for rank order of potency in inhibiting cotinine formation: 10 and 100 μM inhibitor, 50 μM nicotine, K27 liver microsomes; for mean inhibition of cotinine formation (mean±SD): 150 μM inhibitor (each), 100 μM (S)-nicotine, 30 human liver microsomes
Protocol: Chemical inhibition studies. […] To maximize inhibition, and reduce the loss due to its own metabolism, a concentration of 150 μM was chosen for each specific inhibitor. […] This concentration was chosen to maximize the contributions of each cytochrome P450 involved in nicotine metabolism, since each enzyme would likely have varying affinities for nicotine. […] High and low concentrations ([…]) of coumarin, 7methylcoumarin, 7-methoxycoumarin, and 7-ethoxycoumarin were incubated with 50 μM nicotine in K27 human liver microsomes.

in vitro = details: human, human liver microsomes
Protocol: The reaction was started by adding NADPH.
Ethyl acetate (3 mls) was added for extraction purposes.
Data Analysis. […] [formula]

[4] = smokers infused with 2 μg/kg/min×30 minutes
CYP2D6 [5] = target: T2, CYP2D6 (Homo sapiens, UniProt P10635); details: human liver microsomes, Wu, 1993; cited from earlier work
T2 sequence (P10635 whole entry): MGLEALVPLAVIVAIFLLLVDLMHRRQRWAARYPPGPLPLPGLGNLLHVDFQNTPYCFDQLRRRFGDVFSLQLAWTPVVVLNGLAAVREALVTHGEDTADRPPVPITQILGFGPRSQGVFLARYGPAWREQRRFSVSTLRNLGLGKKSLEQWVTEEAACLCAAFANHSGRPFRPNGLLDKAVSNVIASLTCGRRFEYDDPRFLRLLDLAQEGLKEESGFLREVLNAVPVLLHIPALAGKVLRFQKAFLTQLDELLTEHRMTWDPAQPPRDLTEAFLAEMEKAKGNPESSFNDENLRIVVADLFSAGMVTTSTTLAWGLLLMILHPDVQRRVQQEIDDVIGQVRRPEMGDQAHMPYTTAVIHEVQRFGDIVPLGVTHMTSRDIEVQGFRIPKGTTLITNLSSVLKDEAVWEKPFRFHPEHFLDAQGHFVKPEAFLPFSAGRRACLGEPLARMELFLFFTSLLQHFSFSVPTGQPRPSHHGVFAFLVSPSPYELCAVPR

[6] = tested on: nicotine to cotinine metabolism by K20 human liver microsomes
[7] = tested on: nicotine to cotinine metabolism by K20 human liver microsomes; assay: Quinidine and coumarin inhibition of cotinine formation in K20 human liver microsomes
CYP2D6 [8] = target: T2, CYP2D6; assay: in vitro; details: pH 7.4
CYP2A6 [9] = assay: Antisense knockdown of CYP2A6 protein in h2A6 lymphoblast cells (Western blot); assay type: cell-based, human
Protocol: (§1) In order to test the feasiblility of using antisense oligodeoxynucleotides (ASO) for the reduction of the CYP2A6 enzyme we designed 4 ASO to four different parts of the human CYP2A6 gene and mRNA sequence. The ability to decrease CYP2A6 protein was tested in 2 different human cell lines. The first was a human lymphoblast cell line (h2A6) with a plasmid expression system containing the human CYP2A6 cDNA which is commercially available from Gentest Corp (Woburn, Mass.) and the second was a human hepatic cell line which expresses CYP2A6 (HepG2).
The h2A6 P450 cells were grown to 3×10^6 cells, the media removed and 5 μg ASO and 20 μg/ml lipofectin was added in 1 ml of 5% horse serum supplemented media. The cells were grown for 24 hr when a further 4 mls of complete media (10% horse serum) was added and the cells were grown for an additional 48 hr. Each cell sample was then washed 3 times with phosphate buffered saline, pelleted and frozen. […] These studies were then repeated using the addition of missense oligodeoxynucleotides (MSO) controls for this sequence. The MSO controls have 2 nucleotides switched at the 5 and 3 prime end.

CYP2A6 [10] = assay: Antisense knockdown of CYP2A6 protein in HepG2 cells; assay type: cell-based, human; details: 2 μg ASO, relative to control untreated and MSO#23 treated cells
Protocol: as §1
The human hepatic HepG2 cells, which express CYP2A6, were grown and aliquoted at 1.0×10^5 cells and grown for 48 hrs in 2 mls complete media (10% fetal calf serum). After 48 hr, 2 μg ASO oligos and 15 μg/ml lipofectin was added in 1 ml 5% FCS media and grown for 24 hr. Cells then trypsinized and washed for Western blots or fixed with 4% paraformaldehyde for Immunocytochemistry.

[11] = in humans; cited from earlier work
CYP2A6 [12] = target: T1, CYP2A6; assay: Clinical study of methoxsalen pre-treatment before subcutaneous nicotine in dependent smokers; assay type: in vivo; parameters: 200 μl human liver microsomes (0.5 mg/ml); from tissue; host or cells: human liver microsomes (donor livers K12, K26, K27, K28)
Protocol: Frequent blood samples were drawn over 6 hours for measurement of nicotine and cotinine concentrations in plasma and measures of nicotine effects (e.g., heart rate; blood pressure; symptoms and urges and desires to smoke).
Each subject abstained from tobacco, food, beverages (other than water), and any inconsistently used drugs from midnight before each study day but continued to take any regularly scheduled drugs allowed by the protocol (e.g., oral contraceptives, daily vitamins). Before baseline measures were taken, a breath CO sample (Ecolyzer) was taken to assess compliance with the smoking abstinence (<10 ppm expected). The subsequent daily schedule is summarized here. All measurements are with respect to a time zero at 8 AM, at which time the first of three hourly nicotine injections were given. Nicotine was injected at 0, +1, and +2 hours.
Baseline physiologic and subjective measures were taken at −30 minutes, +30 minutes, and hourly thereafter until +5.5 hours, approximately coinciding with the expected peak plasma nicotine concentrations after each injection. Blood samples were taken at least hourly, more often around the expected peaks after the first and third injections, as described below.
Sterile nicotine bitartrate was obtained from Sigma Chemical. […] Nicotine injections of 31 μg/kg (expressed as the base) in sterile saline were used. […] The solutions were passed through a viral filter to remove any remote risk of viral or bacterial contamination.
Using an indwelling venous catheter, 8 ml blood samples were drawn every hour from +0 to +6 hours, and additional blood samples were taken at 15, 25, and 40 minutes after the first and third nicotine injections to characterize the kinetics around the expected time of the peak concentration, 25 minutes from injection. Samples that could not be immediately centrifuged for extraction of plasma were stored on ice for at most one hour before centrifugation.
Plasma (nicotine, cotinine) and urinary nicotine and cotinine were measured using an HPLC ion exchange column assay, using an electrochemical detector for nicotine and a UV detector for other compounds. The sensitivity of the nicotine assay was <1 ng/ml and that of the cotinine was <5 ng/ml. Conjugates in urine were determined after hydrolysis with beta-glucuronidase.

[13] = seven smokers, methoxsalen vs placebo

## CCN(CC)C(=S)S [diethyldithiocarbamic acid]
CYP2A6 [1]
  Ki: 14.5 µM

## Cc1ccccc1C(OCCN(C)C)c1ccccc1 (stereo not drawn) [orphenadrine]
[2]
  estimated half-life: about 14 h

## COc1ccc2ccc(=O)oc2c1 [7-methoxycoumarin]
[3]
  rank order of potency in inhibiting cotinine formation: coumarin>7-methoxycoumarin>7-methylcoumarin>7-ethoxycoumarin

## Cc1ccc2ccc(=O)oc2c1 [7-methylcoumarin]
[3]
  rank order of potency in inhibiting cotinine formation: coumarin>7-methoxycoumarin>7-methylcoumarin>7-ethoxycoumarin

## CN1CCC[C@H]1c1cccnc1 [nicotine, (S)-nicotine]
In vitro; pH 7.4, apparent Km, formation of cotinine (mean±SD), 30 human liver microsomes
  Km at 45 min: 66.7 ± 31.8 µM
In vitro; pH 7.4, mean Km, nicotine to cotinine (mean±SD), 30 human livers
  Km at 45 min: 66.6 ± 31.8 µM
[4]
  urine concentration of NIC: > 80 ng/mL
CYP2D6 [5]
  inhibition of dextromethorphan metabolism by CYP2D6: did not inhibit

## C=C[C@H]1C[N@@]2CC[C@H]1C[C@@H]2[C@@H](O)c1ccnc2ccc(OC)cc12 [quinidine]
[6]
  inhibition: ~20% and 25%
[7]; 0.1 μM inhibitor
  inhibition of cotinine formation: no inhibition
[7]; 1.0 μM inhibitor
  inhibition of cotinine formation: no inhibition
[7]; 10 μM inhibitor
  inhibition of cotinine formation: 8%

## COc1ccc2c(c1)[C@]13CCCC[C@@H]1[C@H](C2)N(C)CC3 [dextromethorphan, Dextromethorphan hydrobromide]
CYP2D6 [8]
  Km at 30 min: 5.79 ± 2.01 µM

## ASO#23: antisense oligodeoxynucleotide, CYP2A6 mRNA 333-353, exon 2 3 prime end: CCATAGCCTTTGAAGACCCAG (DNA, backbone and methylation of C not given here)
CYP2A6 [9]; 5 μg ASO, Western blot
  CYP2A6 immunoreactivity, first test of 4 ASO: effective at removing the CYP2A6 immunoreactivity
CYP2A6 [9]; relative to untreated control cells and MSO#23-treated cells
  amount of CYP2A6, repeat with MSO controls: effectively deceased the amount of CYP2A6
CYP2A6 [10]
  CYP2A6 protein: profound decreases in CYP2A6 protein

## O=c1ccc2ccccc2o1 [coumarin]
[3]
  mean inhibition of cotinine formation (mean±SD): over 80%
  rank order of potency in inhibiting cotinine formation: strongest inhibitory effect; also recorded: coumarin>7-methoxycoumarin>7-methylcoumarin>7-ethoxycoumarin
[3]; listed as Coumarin
  mean inhibition of cotinine formation (mean±SD): 84%±11% and 84±11%
[3]; Cornish-Bowden plots
  nature of inhibition of nicotine metabolism: competitive
[3]; K27 human liver microsomes, n=3, Dixon plot, read-out: apparent Ki, inhibition of nicotine metabolism
  Ki: ~2 µM
[3]; ex vivo in human liver microsomes, read-out: Ki, inhibition of NIC metabolism to COT
  Ki: 1.5 µM

## COc1c2occc2cc2ccc(=O)oc12 [methoxsalen, 9-Methoxy-7H-furol[3,2-g][1]benzopyran-7-one]
[11]
  half-life: about 1 hour
CYP2A6 [12]; plasma, seven subjects, FIG. 25
  change in nicotine concentrations: large changes
CYP2A6 [12]; [13]
  desire to smoke and urge to smoke: significant decreased desire to smoke and urge to smoke
  expectation that a cigarette would be pleasant: significant decrease
  subjective and physiologic effects accompanying increased plasma nicotine: significant increase in nausea, anxiousness, difficulty concentrating, systolic blood pressure

## CO[C@H]1C[C@H](O[C@H]2[C@H](C)[C@@H](O[C@@H]3O[C@H](C)C[C@H](N(C)C)[C@H]3OC(C)=O)[C@@H](C)C[C@@]3(CO3)C(=O)[C@H](C)[C@@H](OC(C)=O)[C@@H](C)[C@@H](C)OC(=O)[C@@H]2C)O[C@@H](C)[C@@H]1OC(C)=O [troleandomycin]
[3]
  mean inhibition of cotinine formation (mean±SD): 3%

## O=C1C[C@@H](c2ccc(O)cc2)Oc2cc(O)cc(O)c21 [naringenin]
CYP2A6 [1]
  Ki: 4.3 µM

## CCOc1ccc2ccc(=O)oc2c1 [7-ethoxycoumarin]
[3]
  rank order of potency in inhibiting cotinine formation: coumarin>7-methoxycoumarin>7-methylcoumarin>7-ethoxycoumarin
